These results are taken from PMC10923520 (Science Advances, 2024).

The subject of the assay is A549 (EGFR^WT) cells. Nature of the assay: MTT cell viability inhibition assay, A549 cells. It counts as cell-based. Particulars: Homo sapiens, A549, 72 h, read-out: IC50 (μM) A549 (EGFR^WT).

Structures are written as SMILES.

As for `C=CC(=O)Nc1cc(Nc2nccc(-c3cn(C)c4ccccc34)n2)c(OC)cc1N(C)CCN(C)C` [Osimertinib, osimertinib], the IC50 amounted to 0.6864 ± 0.0045 µM.
